Experimental data from ChEMBL document CHEMBL1201862, “PubChem BioAssay data set” (2004).
Calls of active or inactive are those of the source. Cut-off read from the data, not from the text of the source: actives have a measured IC50 and inactives only a lower limit.

These molecules were tested against Envelope glycoprotein gp160 (Human immunodeficiency virus 1, UniProt Q6QLK5) (assay: cell-free HIV fusion peptide-binding blockers – biochemical, uHTS, fluorescence dequenching, […] (AID 1986)).
Sequence of Envelope glycoprotein gp160 (Q6QLK5 whole entry, the tested form may be a part): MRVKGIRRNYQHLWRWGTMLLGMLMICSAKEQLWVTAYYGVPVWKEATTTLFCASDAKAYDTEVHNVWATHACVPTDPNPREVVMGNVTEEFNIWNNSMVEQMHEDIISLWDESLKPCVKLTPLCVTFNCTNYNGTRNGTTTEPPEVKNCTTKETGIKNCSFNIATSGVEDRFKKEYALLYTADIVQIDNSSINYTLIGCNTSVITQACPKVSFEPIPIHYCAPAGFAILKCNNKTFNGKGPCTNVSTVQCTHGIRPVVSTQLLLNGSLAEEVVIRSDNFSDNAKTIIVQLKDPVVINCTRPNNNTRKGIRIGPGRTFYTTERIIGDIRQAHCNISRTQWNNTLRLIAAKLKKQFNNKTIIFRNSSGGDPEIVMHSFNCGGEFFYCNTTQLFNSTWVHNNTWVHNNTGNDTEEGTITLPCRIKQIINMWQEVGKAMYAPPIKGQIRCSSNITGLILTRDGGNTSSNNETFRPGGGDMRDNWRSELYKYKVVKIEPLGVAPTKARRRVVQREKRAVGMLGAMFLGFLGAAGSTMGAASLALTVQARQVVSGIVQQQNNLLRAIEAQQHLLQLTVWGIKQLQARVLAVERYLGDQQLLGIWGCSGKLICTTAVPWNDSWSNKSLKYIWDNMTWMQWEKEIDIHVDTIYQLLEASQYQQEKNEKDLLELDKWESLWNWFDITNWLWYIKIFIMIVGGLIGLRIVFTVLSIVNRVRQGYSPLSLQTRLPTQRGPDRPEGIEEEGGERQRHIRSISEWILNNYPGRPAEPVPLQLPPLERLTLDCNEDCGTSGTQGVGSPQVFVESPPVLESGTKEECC
In the case of `O=C1NN(c2ccc(Cl)cc2)C(=O)/C1=C\c1ccc(-c2cccc(C(=O)O)c2)o1`, the IC50 is reported as 11.9 µM (active). In the case of `COc1ccc(OC)c(N2C(=O)/C(=C/c3ccco3)C(=O)NC2=S)c1`, the IC50 is reported as 12.6 µM (active). For `N#Cc1c(O)nc(SCC(=O)N2c3ccccc3Sc3ccccc32)nc1-c1ccccc1`, the IC50 was 13.1 µM (active).
